Laboratory results reported in the Kinase Knowledgebase extract (Sharma et al. 2016).
Several values for one entry are separate records, joined by “and”; a condition that tells them apart may be missing. Equal values may be shown once. Values belong to the compound of their own block, whether it stands above or below them.

Tests used:
MAPK14 = MAPK14 (UniProt Q16539); assay: p38-alpha Inhibition
MAPK14 (human) = MAPK14 (human) (UniProt Q16539); assay: p38 --- TNFalpha Release Inhibition; conditions: monocyte
MAPK14 (Lewis rat) = assay: Adjuvant-Induced Arthritis Model

MAPK14, sequence (Q16539 whole entry, looked up): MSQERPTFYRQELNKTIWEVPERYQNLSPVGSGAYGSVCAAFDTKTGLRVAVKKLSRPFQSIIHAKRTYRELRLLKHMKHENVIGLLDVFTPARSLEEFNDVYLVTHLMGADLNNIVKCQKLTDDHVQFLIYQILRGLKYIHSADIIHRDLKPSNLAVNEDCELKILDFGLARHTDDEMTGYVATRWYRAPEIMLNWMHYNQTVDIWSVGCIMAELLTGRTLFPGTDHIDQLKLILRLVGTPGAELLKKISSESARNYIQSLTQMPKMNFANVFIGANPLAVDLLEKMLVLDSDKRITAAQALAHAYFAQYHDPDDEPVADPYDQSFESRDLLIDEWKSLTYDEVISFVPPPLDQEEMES
MAPK14 (human), sequence (Q16539 whole entry, looked up): as above

Compound: CS(=O)(=O)c1ccc(-c2cc(-c3ccncc3)c(-c3ccc(F)cc3)[nH]2)cc1
IC50 (MAPK14 (human)): 23 nM

Compound: O=c1c(-c2ccncc2)c(-c2ccc(F)cc2)[nH]n1-c1ccc(Cl)cc1
inhibition (MAPK14; concentration not given here): 43%

Compound: CC(C)(C)Oc1ccc(-c2[nH]c(-c3ccccc3)cc2-c2ccncc2)cc1
IC50 (MAPK14): > 1000 nM

Compound: Fc1ccc(-c2[nH]c(-c3ccc(Br)cc3)cc2-c2ccncc2)cc1
IC50 (MAPK14): 100 nM

Compound: COc1ccc2c(c1)c(CC(=O)O)c(C)n2C(=O)c1ccc(Cl)cc1
score (MAPK14 (Lewis rat)): 4.9 and 2.9

The next lines start with results.

IC50 (MAPK14): > 10000 nM
Compound: CCOC(=O)c1ccc(-c2[nH]c(-c3ccccc3)cc2-c2ccncc2)cc1

IC50 (MAPK14): > 10000 nM
Compound: Fc1ccc(-c2[nH]c(-c3ccc(Cl)cc3)cc2-c2ccccn2)cc1

IC50 (MAPK14 (human)): 65 nM
Compound: C[S+]([O-])c1ccc(-c2cc(-c3ccncc3)c(-c3ccc(F)cc3)[nH]2)cc1 (stereo not given)
ID50 (MAPK14 (Lewis rat)): 7.4 mg/kg/day
score (MAPK14 (Lewis rat)): 3.6 and 1.6
